For one data set, the system named is Laodelphax striatellus. Nature of the data set: Insecticidal test against Laodelphax striatellus. Conditions: 500 ppm drug solution, rice seedlings immersed 30 seconds, three-instar insects, eight days after inoculation.
A further data set relates to Plutella xylostella. Description: Insecticidal test against Plutella xylostella. Conditions: 500 ppm drug solution, Chinese cabbage seedlings with eggs immersed about 30 sec, six days after immersion, 25° C.
Data set [1] relates to Frankliniella occidentalis. Description: Insecticidal test against Frankliniella occidentalis. Conditions: 500 ppm drug solution sprayed on hatched larvae on Phaseolus vulgaris leaf pieces, four days after treatment.
Text: Insecticidal Test Against Frankliniella occidentalis
Female adults of Frankliniella occidentalis were inoculated onto Phaseolus vulgaris leaf pieces, and after allowing them to lay eggs for one day, the female adults were removed. […] Four days after the treatment, the number of surviving larvae of this species larvae was examined. […] In duplicate.

Text for Plutella xylostella: Insecticidal Test Against Plutella xylostella
Six days after the immersion in the drug solution, the number of surviving insects was examined. […] In triplicate using 10 per plot.

In the case of `CN1C(=O)C(C(=O)Nc2ccc(Cl)cc2)=C(O)CC1c1ccc(C(F)(F)F)cc1` (stereo not shown) [1-4], the “corrected mortality, rating of assessment” value (“corrected mortality, rating” below) in the data set on Laodelphax striatellus and in the data set on Plutella xylostella was “D or higher” each time.

Consider `O=C(Nc1ccc(F)cc1)C1=C(O)CC(c2ccc(C(F)(F)F)cc2)N(Cc2ccccc2)C1=O` (stereo not shown) [1-5], for which the “corrected mortality, rating” value (in the data set on Plutella xylostella; in data set [1]) was “D or higher” each time.

Consider `CN1C(=O)C(C(=S)Nc2ccc(F)cc2)=C(O)CC1c1ccc(C(F)(F)F)cc1` (stereo not shown) [1-8], for which the “corrected mortality, rating” value (in the data set on Plutella xylostella; in data set [1]) was “D or higher” each time.

Consider `CN1C(=O)C(C(=O)Nc2ccc(F)cn2)=C(O)CC1c1ccc(C(F)(F)F)cc1` (stereo not shown) [1-10], for which the “corrected mortality, rating” value with Plutella xylostella is on record as “D or higher”.

Take `CN1C(=O)C(C(=S)Nc2ccc(F)cn2)=C(O)CC1c1ccc(C(F)(F)F)cc1` (stereo not shown) [1-11]: the “corrected mortality, rating” value in the data set with Plutella xylostella is listed as “D or higher”.

For the compound `CN1C(=O)C(C(=O)Nc2ccc(F)cc2)=C(O)CC1c1ccc(C(F)(F)F)nc1` (stereo not shown) [1-12], the “corrected mortality, rating” value with Laodelphax striatellus and with Plutella xylostella was “D or higher” each time.

For the compound `CN1C(=O)C(C(=O)Nc2ccc(F)cn2)=C(O)CC1c1ccc(C(F)(F)F)nc1` (stereo not shown) [1-13], the “corrected mortality, rating” value with Laodelphax striatellus and in the data set with Plutella xylostella was “D or higher” each time.

For `CN1C(=O)C(C(=O)Nc2ccc(F)nc2)=C(O)CC1c1ccc(C(F)(F)F)cc1` (stereo not shown) [1-14], the “corrected mortality, rating” value (in the data set with Laodelphax striatellus; in the data set on Plutella xylostella; in data set [1]) was “D or higher” in each case.

Consider `CN1C(=O)C(C(=O)Nc2ncc(F)cn2)=C(O)CC1c1ccc(C(F)(F)F)cc1` (stereo not shown) [1-15], for which the “corrected mortality, rating” value in the data set on Plutella xylostella is on record as “D or higher”.

For `C#CCNC(=O)C1=C(O)CC(c2ccc(C(F)(F)F)cc2)N(C)C1=O` (stereo not shown) [1-27], in the data set on Plutella xylostella, the “corrected mortality, rating” value is “D or higher”.

With `CCCN1C(=O)C(C(=O)Nc2ccc(F)cn2)=C(O)CC1c1ccc(C(F)(F)F)nc1` (stereo not shown) [1-31], the “corrected mortality, rating” value (with Laodelphax striatellus; in the data set on Plutella xylostella; in data set [1]) was “D or higher” in each case.

For `CCCN1C(=O)C(C(=O)Nc2ccc(F)cc2)=C(O)CC1c1ccc(C(F)(F)F)nc1` (stereo not shown) [1-32], the “corrected mortality, rating” value in the data set on Laodelphax striatellus and with Plutella xylostella was “D or higher” throughout.

As to `C#CCN1C(=O)C(C(=O)Nc2cc(C)on2)=C(O)CC1c1ccc(C(F)(F)F)nc1` (stereo not shown) [1-33], the “corrected mortality, rating” value (in the data set with Laodelphax striatellus; in the data set with Plutella xylostella; in data set [1]) was “D or higher” throughout.

Turning to `C#CCN1C(=O)C(C(=O)Nc2ccn(C)n2)=C(O)CC1c1ccc(C(F)(F)F)nc1` (stereo not shown) [1-34], the “corrected mortality, rating” value in the data set on Laodelphax striatellus and in the data set on Plutella xylostella was “D or higher” in each case.

For `C#CCN1C(=O)C(C(=O)Nc2ccnc(F)c2)=C(O)CC1c1ccc(C(F)(F)F)nc1` (stereo not shown) [1-35], the “corrected mortality, rating” value with Laodelphax striatellus and in the data set on Plutella xylostella was “D or higher” each time.

With `C#CCN1C(=O)C(C(=O)Nc2ccc(F)cn2)=C(O)CC1c1ccc(Cl)nc1` (stereo not shown) [1-36], the “corrected mortality, rating” value (with Laodelphax striatellus; with Plutella xylostella; in data set [1]) was “D or higher” in each case.

As for `C#CCN1C(=O)C(C(=O)Nc2ccc(F)cn2)=C(O)CC1c1ccc(SC)cc1` (stereo not shown) [1-37], the “corrected mortality, rating” value with Laodelphax striatellus and with Plutella xylostella was “D or higher” each time.

Regarding `C#CCN1C(=O)C(C(=O)Nc2ccc(F)cn2)=C(O)CC1c1ccc([S+](C)[O-])cc1` (stereo not shown) [1-38], the “corrected mortality, rating” value with Laodelphax striatellus and in the data set on Plutella xylostella was “D or higher” in each case.

Consider `C#CCN1C(=O)C(C(=O)Nc2ccc(F)cn2)=C(O)CC1c1ccc(S(C)(=O)=O)cc1` (stereo not shown) [1-39], for which the “corrected mortality, rating” value in the data set on Laodelphax striatellus and in the data set on Plutella xylostella was “D or higher” in each case.

Consider `C#CCN1C(=O)C(C(=O)Nc2ccc(SC)cc2)=C(O)CC1c1ccc(C(F)(F)F)nc1` (stereo not shown) [1-41], for which, in the data set with Laodelphax striatellus, the “corrected mortality, rating” value was “D or higher”.

Turning to `C#CCN1C(=O)C(C(=O)Nc2ccc([S+](C)[O-])cc2)=C(O)CC1c1ccc(C(F)(F)F)nc1` (stereo not shown) [1-42], in the data set on Laodelphax striatellus, the “corrected mortality, rating” value is “D or higher”.

`C#CCN1C(=O)C(C(=O)Nc2ccc(S(C)(=O)=O)cc2)=C(O)CC1c1ccc(C(F)(F)F)nc1` (stereo not shown) [1-43]: the “corrected mortality, rating” value with Laodelphax striatellus was “D or higher”.

Take `C#CCN1C(=O)C(C(=O)Nc2ccc(F)cc2)=C(O)CC1c1ccc(SC)cc1` (stereo not shown) [1-44]: the “corrected mortality, rating” value in the data set with Plutella xylostella is on record as “D or higher”.

For the compound `CN1C(=O)C(C(=O)Nc2ccc(SC(F)(F)F)cc2)=C(O)CC1c1ccc(C(F)(F)F)nc1` (stereo not shown) [1-49], the “corrected mortality, rating” value with Plutella xylostella is listed as “D or higher”.

`CN1C(=O)C(C(=O)Nc2ccc(NS(C)(=O)=O)cc2)=C(O)CC1c1ccc(C(F)(F)F)nc1` (stereo not shown) [1-60]: the “corrected mortality, rating” value in the data set with Plutella xylostella is listed as “D or higher”.

With `O=C1NCC(c2ccccc2C(F)(F)F)C(O)=C1C(=O)Nc1ccccc1F` (stereo not shown) [3-3], in the data set with Plutella xylostella, the “corrected mortality, rating” value is on record as “D or higher”.

In the case of `O=C1NCC(c2ccc(Cl)cc2)C(O)=C1C(=O)Nc1ccc(F)cc1` (stereo not shown) [3-10], in the data set with Plutella xylostella, the “corrected mortality, rating” value is listed as “D or higher”.

In the case of `CN1CC(C)(c2ccc(C(F)(F)F)cc2)C(O)=C(C(=O)Nc2ccc(F)cc2)C1=O` (stereo not shown) [3-11], in the data set with Plutella xylostella, the “corrected mortality, rating” value is “D or higher”.

Regarding `CN1CC(C)(c2ccc(C(F)(F)F)cc2)C(O)=C(C(=O)Nc2ccc(C(F)(F)F)cc2)C1=O` (stereo not shown) [3-12], in the data set with Plutella xylostella, the “corrected mortality, rating” value is given as “D or higher”.

For `CCC1(c2ccc(C(F)(F)F)cc2)CN(C)C(=O)C(C(=S)Nc2ccc(F)cn2)=C1O` (stereo not shown) [3-23], the “corrected mortality, rating” value in the data set on Laodelphax striatellus and in the data set with Plutella xylostella was “D or higher” throughout.

For `CCC1(c2ccc(C(F)(F)F)cc2)CNC(=O)C(C(=O)Nc2ccc(F)cc2)=C1O` (stereo not shown) [3-24], the “corrected mortality, rating” value in the data set with Laodelphax striatellus and in the data set with Plutella xylostella was “D or higher” in each case.

With `CCC1(c2ccc(C(F)(F)F)cc2)CN(C)C(=O)C(C(=O)Nc2ncc(F)cn2)=C1O` (stereo not shown) [3-26], the “corrected mortality, rating” value in the data set with Laodelphax striatellus is listed as “D or higher”.

For `CCC1(c2ccc(C(F)(F)F)cc2)CN(C)C(=O)C(C(=O)NN2CCOCC2)=C1O` (stereo not shown) [3-27], the “corrected mortality, rating” value in the data set on Laodelphax striatellus is “D or higher”.

For `CCC1(c2ccc(C(F)(F)F)cc2)CN(C)C(=O)C(C(=O)Nc2cnc3ccccc3c2)=C1O` (stereo not shown) [3-29], the “corrected mortality, rating” value with Plutella xylostella is recorded as “D or higher”.

For `CCC1(c2ccc(C(F)(F)F)cc2)CN(C)C(=O)C(C(=O)Nc2ccc(OC)cc2)=C1O` (stereo not shown) [3-31], the “corrected mortality, rating” value in the data set on Laodelphax striatellus and with Plutella xylostella was “D or higher” throughout.

Turning to `CCC1(c2ccc(C(F)(F)F)cc2)CN(C)C(=O)C(C(=O)Nc2ccc(C)cc2)=C1O` (stereo not shown) [3-34], in the data set with Plutella xylostella, the “corrected mortality, rating” value was “D or higher”.

Consider `CCC1(c2ccc(C(F)(F)F)cc2)CN(C)C(=O)C(C(=O)Nc2ccc(S(C)(=O)=O)cc2)=C1O` (stereo not shown) [3-35], for which the “corrected mortality, rating” value in the data set on Laodelphax striatellus and in the data set on Plutella xylostella was “D or higher” in each case.

In the case of `CCC1(c2ccc(C(F)(F)F)cc2)CN(C)C(=O)C(C(=O)Nc2ccc(C3CC3)cc2C)=C1O` (stereo not shown) [3-38], the “corrected mortality, rating” value in the data set on Plutella xylostella is recorded as “D or higher”.

Turning to `CN1C(=O)C(C(=O)Nc2ccc(C(F)(F)F)cc2)=C(O)CC1c1ccc(C(F)(F)F)cc1` (stereo not shown) [compound No. 1-1, 4-hydroxy-1-methyl-2-oxo-N, 6-bis(4-(trifluoromethyl)phenyl)-1,2,5,6-tetrahydropyridine-3-carboxamide], in the data set on Plutella xylostella, the “corrected mortality, rating” value is reported as “D or higher”.

For `CN1C(=O)C(C(=O)Nc2ccc(OC(F)(F)F)cc2)=C(O)CC1c1ccc(C(F)(F)F)cc1` (stereo not shown) [compound No. 1-2], the “corrected mortality, rating” value in the data set with Plutella xylostella is given as “D or higher”.

`CN1C(=O)C(C(=O)NCc2ccc(F)cc2)=C(O)CC1c1ccc(C(F)(F)F)cc1` (stereo not shown) [compound No. 1-3]: the “corrected mortality, rating” value in the data set on Plutella xylostella was “D or higher”.

Regarding `CN1C(=O)C(C(=S)Nc2ccc(C(F)(F)F)cc2)=C(O)CC1c1ccc(C(F)(F)F)cc1` (stereo not shown) [compound No. 1-9, 4-hydroxy-1-methyl-2-oxo-N, 6-bis(4-(trifluoromethyl)phenyl)-1,2,5,6-tetrahydropyridine-3-carbothioamide], the “corrected mortality, rating” value (in the data set with Plutella xylostella; in data set [1]) was “D or higher” each time.

Regarding `O=C(Nc1ccc(F)cc1)C1=C(S)CC(c2ccc(C(F)(F)F)nc2)NC1=O` (stereo not shown) [compound No. 1-28, N-(4-fluorophenyl)-4-mercapto-6-oxo-6′-(trifluoromethyl)-1,2,3,6-tetrahydro-[2,3′-bipyridine]-5-carboxamide], the “corrected mortality, rating” value (in the data set with Laodelphax striatellus; in the data set on Plutella xylostella; in data set [1]) was “D or higher” each time.

`CSC1=C(C(=O)Nc2ccc(F)cc2)C(=O)NC(c2ccc(C(F)(F)F)nc2)C1` (stereo not shown) [compound No. 1-29, N-(4-fluorophenyl)-4-(methylthio)-6-oxo-6′-(trifluoromethyl)-1,2,3,6-tetrahydro-[2,3′-bipyridine]-5-carboxamide]: in the data set with Plutella xylostella, the “corrected mortality, rating” value is “D or higher”.

Regarding `C[S+]([O-])C1=C(C(=O)Nc2ccc(F)cc2)C(=O)NC(c2ccc(C(F)(F)F)nc2)C1` (stereo not shown) [compound No. 1-30, N-(4-fluorophenyl)-4-(methylsulfinyl)-6-oxo-6′-(trifluoromethyl)-1,2,3,6-tetrahydro-[2,3′-bipyridine]-5-carboxamide], the “corrected mortality, rating” value (in the data set on Laodelphax striatellus; in the data set with Plutella xylostella; in data set [1]) was “D or higher” each time.
